Test results taken from US20230085307A1, “PYRIDAZINONE COMPOUND AND HERBICIDE” (NISSAN CHEMICAL CORPORATION, priority 2019, published 2023).

How the values were obtained:
[1] = system: southern crabgrass; assay: Test Example 5: herbicidal effect by foliage application, plastic box (Table 20, symbol F); type: in vivo, southern crabgrass (Digitaria ciliaris); settings: foliage application; for effect on southern crabgrass (F): 3 weeks after application
Procedure, shortened: (§1)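 Post-emergence foliar test in sterilized diluvial soil. Compound applied as water-diluted emulsion at a predetermined rate to 14-day-old plants; evaluation at three weeks.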

[2] = system: Italian ryegrass; assay: Test Example 4: herbicidal effect by soil treatment (Table 19, symbol K); type: in vivo, Italian ryegrass (Lolium multiflorum)
Procedure, shortened: (§2)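 Emulsion of test compound, water-diluted to predetermined amount, sprayed on soil after sowing (seed depth ~1.5 cm, sterilized diluvial soil). Greenhouse, 25–30° C. Effect graded at three weeks post-spray.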

[3] = system: oval-leafed pondweed; assay: Test Example 1: herbicidal activity, application before weed generation under submerged conditions (Table 16, symbol C); type: in vivo, oval-leafed pondweed (Monochoria vaginalis); settings: 320 g/ha applied herbicide
Procedure, shortened: (§3)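 Submerged Wagner pots (alluvial soil, 4 cm water) sown with weed seeds and planted with 2.5-leaf rice seedlings; emulsifiable concentrate diluted in water applied to water surface on sowing day. Held in greenhouse at 25-30 °C; injury scored 0-5 by herbicidal rate after three weeks.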

[4] = system: persian speedwell; assay: Test Example 5: herbicidal effect by foliage application, plastic box (Table 20, symbol R); type: in vivo, Persian speedwell (Veronica persica); settings: foliage application; for effect on persian speedwell (R): 3 weeks after application
Procedure, shortened: as §1

[5] = system: rice flat sedge; assay: Test Example 3: herbicidal effect by foliage application, Wagner pot (Table 18, symbol E); type: in vivo, rice flat sedge (Cyperus iria); settings: for herbicidal effect on E (rice flat sedge), rating 0-5: 320 g/ha
Procedure, shortened: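 Plants were sown in alluvial soil held under 0.1–0.5 cm standing water and grown 14 days in a greenhouse at 25–30 °C. An emulsifiable formulation, water-diluted to the set dose, was then sprayed onto the foliage, and effects were scored three weeks later using previously defined criteria.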

[6] = system: green foxtail; assay: Test Example 5: herbicidal effect by foliage application, plastic box (Table 20, symbol G); type: in vivo, green foxtail (Setaria viridis); settings: foliage application; for effect on green foxtail (G): 3 weeks after application
Procedure, shortened: as §1

[7] = system: Japanese bulrush; assay: Test Example 2: herbicidal activity, application during weed generation under submerged conditions (Table 17, symbol B); type: in vivo, Japanese bulrush (Schoenoplectus juncoides); settings: AAH 320 g/ha; application during weed generation, submerged conditions
Procedure, shortened: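 Steps: fill Wagner pots with alluvial soil; add water to give 4 cm depth; sow the species mixed; grow under glass at 25–30° C.; at 1–2 leaves apply water-diluted emulsion formulation to the water surface at a fixed herbicide amount; score after 3 weeks.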

[8] = system: chickweed; assay: Test Example 5: herbicidal effect by foliage application, plastic box (Table 20, symbol P); type: in vivo, common chickweed (Stellaria media); settings: foliage application
Procedure, shortened: as §1

[9] = system: windgrass; assay: Test Example 4: herbicidal effect by soil treatment (Table 19, symbol L); type: in vivo, windgrass (Apera spica-venti)
Procedure, shortened: as §2

[10] = system: velvetleaf; assay: Test Example 5: herbicidal effect by foliage application, plastic box (Table 20, symbol M); type: in vivo, velvetleaf (Abutilon theophrasti); settings: foliage application; for effect on velvetleaf (M): 3 weeks after application
Procedure, shortened: as §1

[11] = system: barnyard grass; assay: Test Example 5: herbicidal effect by foliage application, plastic box (Table 20, symbol H); type: in vivo, barnyard grass (Echinochloa crus-galli); settings: foliage application; for effect on barnyard grass (H): 3 weeks after application
Procedure, shortened: as §1

[12] = system: wild oat; assay: Test Example 4: herbicidal effect by soil treatment (Table 19, symbol I); type: in vivo, wild oat (Avena fatua)
Procedure, shortened: as §2

[13] = system: late watergrass; assay: Test Example 1: herbicidal activity, application before weed generation under submerged conditions (Table 16, symbol A); type: in vivo, late watergrass (Echinochloa oryzicola); settings: 320 g/ha applied herbicide
Procedure, shortened: as §3

[14] = system: persian speedwell; assay: Test Example 4: herbicidal effect by soil treatment (Table 19, symbol R); type: in vivo, Persian speedwell (Veronica persica)
Procedure, shortened: as §2

[15] = system: redroot pigweed; assay: Test Example 5: herbicidal effect by foliage application, plastic box (Table 20, symbol N); type: in vivo, redroot pigweed (Amaranthus retroflexus); settings: foliage application
Procedure, shortened: as §1

[16] = 320 g/ha, three weeks after application
[17] = amount of applied herbicide 320 g/ha
[18] = AAH 320 g/ha, evaluated three weeks after application
[19] = 320 g/ha, evaluated three weeks after application

SMILES | Herbicidal effect on C: oval-leafed pondweed (grade 0-5) [3] | herbicidal effect on E (rice flat sedge), rating 0-5 [5] | herbicidal effect rating, B: Japanese bulrush [7] | Herbicidal effect on A: late watergrass (grade 0-5) [13] | effect on southern crabgrass (F) ([1]; 320 g/ha) | effect on persian speedwell (R) ([4]; 320 g/ha) | effect on green foxtail (G) ([6]; 320 g/ha) | effect on velvetleaf (M) ([10]; 320 g/ha) | effect on barnyard grass (H) ([11]; 320 g/ha) | herbicidal effect rating, K: Italian ryegrass ([2]; 320 g/ha) | herbicidal effect rating, L: windgrass ([9]; 320 g/ha) | herbicidal effect rating, I: wild oat ([12]; 320 g/ha) | herbicidal effect rating, R: persian speedwell ([14]; 320 g/ha) | other results
CCCOc1ccc(-c2sc3ccccc3c2-c2c(O)c(C)nn(C)c2=O)cc1 [1-019] | 4 (Herbicidal rate of 70% or more and less than 90%) | 5 (Herbicidal rate of 90% or more (almost completely withered)) | 4 (Herbicidal rate of 70% or more and less than 90%) | 5 (Herbicidal rate of 90% or more (almost completely withered)) | – | – | – | – | – | – | – | – | – | herbicidal effect grade, F: southern crabgrass [1, 16]: 4 (Herbicidal rate of 70% or more and less than 90%); herbicidal effect rating, K: Italian ryegrass [2, 17]: 3 (Herbicidal rate of 40% or more and less than 70%); herbicidal effect grade, R: persian speedwell [4, 16]: 5 (Herbicidal rate of 90% or more (almost completely withered)); herbicidal effect grade, G: green foxtail [6, 16]: 5 (Herbicidal rate of 90% or more (almost completely withered)); herbicidal effect grade, P: chickweed [8, 16]: 5 (Herbicidal rate of 90% or more (almost completely withered)); herbicidal effect rating, L: windgrass [9, 17]: 0 (Herbicidal rate of 5% or less (almost no effect)); herbicidal effect grade, M: velvetleaf [10, 16]: 5 (Herbicidal rate of 90% or more (almost completely withered)); herbicidal effect grade, H: barnyard grass [11, 16]: 5 (Herbicidal rate of 90% or more (almost completely withered)); herbicidal effect rating, I: wild oat [12, 17]: 0 (Herbicidal rate of 5% or less (almost no effect)); herbicidal effect rating, R: persian speedwell [14, 17]: 5 (Herbicidal rate of 90% or more (almost completely withered)); herbicidal effect grade, N: redroot pigweed [15, 16]: 5 (Herbicidal rate of 90% or more (almost completely withered))
COCCOCOc1c(C)nn(C)c(=O)c1-c1c(-c2ccc(OCCC3OCCO3)cc2)sc2ccccc12 [1-224] | 3 (Herbicidal rate of 40% or more and less than 70%) | 5 (Herbicidal rate of 90% or more (almost completely withered)) | 3 (Herbicidal rate of 40% or more and less than 70%) | 5 (Herbicidal rate of 90% or more (almost completely withered)) | 3 (Herbicidal rate of 40% or more and less than 70%) | 5 (Herbicidal rate of 90% or more (almost completely withered)) | 5 (Herbicidal rate of 90% or more (almost completely withered)) | 5 (Herbicidal rate of 90% or more (almost completely withered)) | 5 (Herbicidal rate of 90% or more (almost completely withered)) | – | – | – | – | K: Italian ryegrass, herbicidal effect rating ([2]; AAH 320 g/ha): 0 (Herbicidal rate of 5% or less (almost no effect)); L: windgrass, herbicidal effect rating ([9]; AAH 320 g/ha): 0 (Herbicidal rate of 5% or less (almost no effect)); I: wild oat, herbicidal effect rating ([12]; AAH 320 g/ha): 0 (Herbicidal rate of 5% or less (almost no effect)); R: persian speedwell, herbicidal effect rating ([14]; AAH 320 g/ha): 3 (Herbicidal rate of 40% or more and less than 70%)
Cc1nn(C)c(=O)c(-c2c(-c3ccc(OC(F)F)cc3)sc3ccc(F)cc23)c1OC(=O)C1CCCC1 [2-280] | 0 (Herbicidal rate of 5% or less (almost no effect)) | – | 3 (Herbicidal rate of 40% or more and less than 70%) | 5 (Herbicidal rate of 90% or more (almost completely withered)) | – | – | – | – | – | – | – | – | – | F: southern crabgrass, herbicidal effect (criteria 0-5) [1, 18]: 3 (Herbicidal rate of 40% or more and less than 70%); herbicidal effect on K: Italian ryegrass [2, 17]: 5 (Herbicidal rate of 90% or more (almost completely withered)); R: persian speedwell, herbicidal effect (criteria 0-5) [4, 18]: 5 (Herbicidal rate of 90% or more (almost completely withered)); herbicidal effect on E: rice flat sedge [5, 17]: 4 (Herbicidal rate of 70% or more and less than 90%); G: green foxtail, herbicidal effect (criteria 0-5) [6, 18]: 4 (Herbicidal rate of 70% or more and less than 90%); P: chickweed, herbicidal effect (criteria 0-5) [8, 18]: 5 (Herbicidal rate of 90% or more (almost completely withered)); herbicidal effect on L: windgrass [9, 17]: 0 (Herbicidal rate of 5% or less (almost no effect)); M: velvetleaf, herbicidal effect (criteria 0-5) [10, 18]: 5 (Herbicidal rate of 90% or more (almost completely withered)); H: barnyard grass, herbicidal effect (criteria 0-5) [11, 18]: 5 (Herbicidal rate of 90% or more (almost completely withered)); herbicidal effect on I: wild oat [12, 17]: 0 (Herbicidal rate of 5% or less (almost no effect)); herbicidal effect on R: persian speedwell [14, 17]: 4 (Herbicidal rate of 70% or more and less than 90%); N: redroot pigweed, herbicidal effect (criteria 0-5) [15, 18]: 5 (Herbicidal rate of 90% or more (almost completely withered))
Cc1nn(C)c(=O)c(-c2c(-c3ccc(Cl)cc3)sc3ccc(F)cc23)c1O [Compound No. 2-010, 4-(2-(4-chlorophenyl)-5-fluorobenzo[b]thiophen-3-yl)-5-hydroxy-2,6-dimethylpyridazin-3(2H)-one] | 1 (Herbicidal rate of 5% or more and less than 20%) | 5 (Herbicidal rate of 90% or more (almost completely withered)) | – | 3 (Herbicidal rate of 40% or more and less than 70%) | 5 (Herbicidal rate of 90% or more (almost completely withered)) | 5 (Herbicidal rate of 90% or more (almost completely withered)) | 5 (Herbicidal rate of 90% or more (almost completely withered)) | 5 (Herbicidal rate of 90% or more (almost completely withered)) | 5 (Herbicidal rate of 90% or more (almost completely withered)) | 5 (Herbicidal rate of 90% or more (almost completely withered)) | 0 (Herbicidal rate of 5% or less (almost no effect)) | 1 (Herbicidal rate of 5% or more and less than 20%) | 5 (Herbicidal rate of 90% or more (almost completely withered)) | –
COc1cc(F)ccc1-c1sc2ccc(Cl)cc2c1-c1c(O)c(C)nn(C)c1=O [Compound No. 2-095, 4-(5-chloro-2-(4-fluoro-2-methoxyphenyl)benzo[b]thiophen-3-yl)-5-hydroxy-2,6-dimethylpyridazin-3(2H)-one] | 0 (Herbicidal rate of 5% or less (almost no effect)) | 5 (Herbicidal rate of 90% or more (almost completely withered)) | – | 2 (Herbicidal rate of 20% or more and less than 40%) | – | – | – | – | – | 0 (Herbicidal rate of 5% or less (almost no effect)) | 3 (Herbicidal rate of 40% or more and less than 70%) | 0 (Herbicidal rate of 5% or less (almost no effect)) | 4 (Herbicidal rate of 70% or more and less than 90%) | herbicidal effect on F: southern crabgrass [1, 19]: 4 (Herbicidal rate of 70% or more and less than 90%); herbicidal effect on R: persian speedwell [4, 19]: 5 (Herbicidal rate of 90% or more (almost completely withered)); herbicidal effect on G: green foxtail [6, 19]: 5 (Herbicidal rate of 90% or more (almost completely withered)); herbicidal effect on P: chickweed [8, 19]: 5 (Herbicidal rate of 90% or more (almost completely withered)); herbicidal effect on M: velvetleaf [10, 19]: 5 (Herbicidal rate of 90% or more (almost completely withered)); herbicidal effect on H: barnyard grass [11, 19]: 4 (Herbicidal rate of 70% or more and less than 90%); herbicidal effect on N: redroot pigweed [15, 19]: 5 (Herbicidal rate of 90% or more (almost completely withered))
